For one assay, the system named is fibroblasts. The assay is described as follows: Antiproliferative assay (inhibition of cell proliferation, procedure of Pledger et al.). In kind it is cell-based. The conditions noted are these: for EC50: Fibroblast; for Antiproliferative Assay Data Inhibition (%): percent inhibition at the maximum concentration tested. An excerpt:
The compounds of Formula I are active as inhibitors of cell proliferation as shown in Table 1 by the test procedure described in Pledger W.J., Stiles C.D., Antniades H.N., Scher C.D., (Proc. Natl. Acad. Sci (USA) (1977). In addition, various compounds of Formula I are also inhibitors of ADP induced platelet aggregation and are useful in the prevention or treatment of thrombotic diseases and related complications by, for example, inhibition or reversal of platelet aggregation, or platelet adhesion or blood coagulation. […]

In assay [1] the test system is ADP induced platelet aggregation. The assay is described as follows: Inhibition of ADP-induced platelet aggregation (procedure of Born and Cross). The assay is classed as cell-based. The conditions noted are these: for inhibition at 10 µg/mL: read-out: Inhibition of Platelet Aggregation 10 ug/ml; for inhibition at 30 µg/mL: read-out: Inhibition of Platelet Aggregation 30 ug/ml. As for the experimental part: Most compounds of Formula I are active as inhibitors of platelet aggregation as shown in Table 1 by the test procedure described in Born, G.R., Cross M.J., J. Physiol., 168, p. 178 (1963).
Also, reported is the percent inhibition of platelet aggregation at 10ug/ml and 30 ug/ml concentrations.

What is called EC50 is the concentration needed to bring the measured effect to its halfway point. High values mean a need for much substance, low ones an effect from little substance. Take `O=c1cc(-c2ccc(O)cc2)oc(N2CCOCC2)c1` [Compound 1, 2-(4-Hydroxyphenyl)-6-(4-morpholinyl)-4H-pyran-4-one]: in the assay with fibroblasts, a half-maximal effect (EC50) was put at 29.4 µM and the “Antiproliferative Assay Data Inhibition (%)” value is recorded as 54%. Also, in assay [1], the inhibition at 10 µg/mL came out at 75% and the inhibition at 30 µg/mL was 95%.
With `O=c1cc(-c2ccc(OCc3ccccc3)cc2)oc(N2CCOCC2)c1` [Compound 2], the response in the assay with fibroblasts was half-maximal at 6.9 µM (EC50). For the same compound, in assay [1], the inhibition at 10 µg/mL worked out at 10% and the inhibition at 30 µg/mL is 15%.
Compound `O=c1cc(-c2ccccc2)oc(N2CCOCC2)c1` [Compound 3, 2-(4-Morpholinyl)-6-phenyl-4H-pyran-4-one] showed an EC50 in the assay with fibroblasts of 28 µM. In addition, in assay [1], the inhibition at 10 µg/mL was found to be 45% and the inhibition at 30 µg/mL came out at 50%.
With `CC(C)(C)C(=O)COc1ccc(-c2cc(=O)cc(N3CCOCC3)o2)cc1` [Compound 4, 2-(4-(3,3-Dimethyl-2-oxobutoxy)phenyl)-6-(4-morpholinyl)-4H-pyran-4-one], in the assay with fibroblasts, the EC50 amounted to 9.4 µM and the “Antiproliferative Assay Data Inhibition (%)” value was 66%. Also, in assay [1], the inhibition at 10 µg/mL is 45% and the inhibition at 30 µg/mL was 60%.
Take `O=c1cc(-c2ccc(OCc3cccnc3)cc2)oc(N2CCOCC2)c1` [Compound 5, 2-(4-Morpholinyl)-6-(4-(3-pyridinylmethoxy)phenyl)-4H-pyran-4-one]: in the assay with fibroblasts, the EC50 was 11.2 µM and the “Antiproliferative Assay Data Inhibition (%)” value is listed as 77%. Besides, in assay [1], the inhibition at 10 µg/mL was determined as 40% and the inhibition at 30 µg/mL is 55%.
The corresponding values for `O=c1cc(-c2ccc(OCc3ccccn3)cc2)oc(N2CCOCC2)c1` [Compound 6, 2-(4-Morpholinyl)-6-(4-(2-pyridinylmethoxy)phenyl)-4H-pyran-one] are 14.8 µM, 72%, 25% and 40%.
Consider `O=c1cc(-c2ccc(OCCN3CCCCC3)cc2)oc(N2CCOCC2)c1` [Compound 7, 2-(4-Morpholinyl)-6-((4-(2-(1-piperidinyl)ethyl)oxy)phenyl)-4H-pyran-4-one], for which, in the assay on fibroblasts, the EC50 was more than 31.2 µM and the “Antiproliferative Assay Data Inhibition (%)” value amounted to 30%. For the same compound, in assay [1], the inhibition at 10 µg/mL was found to be 60% and the inhibition at 30 µg/mL came to 70%.
`O=c1cc(-c2ccc(OCc3ccc4ccccc4n3)cc2)oc(N2CCOCC2)c1` [Compound 8, 2-(4-Morpholinyl)-6-(4-(2-quinolinylmethoxy)phenyl)-4H-pyran-4-one]: the EC50 in the assay with fibroblasts turned out to be 6.8 µM. Moreover, in assay [1], the inhibition at 10 µg/mL was determined as 35% and the inhibition at 30 µg/mL is 35%.
As for `O=c1cc(-c2ccccc2OCc2ccccc2)oc(N2CCOCC2)c1` [Compound 9, 2-(4-Morpholinyl)-6-(2-(phenylmethoxy)phenyl)-4H-pyran-4-one], in the assay on fibroblasts, it took 11.6 µM to reach a half-maximal effect (EC50) and the “Antiproliferative Assay Data Inhibition (%)” value came to 88%. In assay [1], the inhibition at 10 µg/mL was 60% and the inhibition at 30 µg/mL was 65%.
Consider `O=c1cc(-c2ccccc2O)oc(N2CCOCC2)c1` [Compound 10, 2-(2-Hydroxyphenyl)-6-(4-morpholinyl)-4H-pyran-4-one], for which, in the assay on fibroblasts, the midpoint of the response, the EC50, lay at 62.2 µM and the “Antiproliferative Assay Data Inhibition (%)” value was determined as 34%.
The compound `CCCCC(Oc1ccc(-c2cc(=O)cc(N3CCOCC3)o2)cc1)c1ccccc1` (stereo not shown) [Compound 11, 2-(4-Morpholinyl)-6-(4-((1-phenylpentyl)oxy)phenyl)-4H-pyran-4-one] yielded an EC50 in the assay with fibroblasts of 22.9 µM. For the same compound, in assay [1], the inhibition at 10 µg/mL stood at 10% and the inhibition at 30 µg/mL is 10%.
In the case of `O=c1cc(CN2CCOCC2)oc(-c2ccc(OCc3ccccc3)cc2)c1` [Compound 12], in the assay with fibroblasts, it took 41 µM to reach a half-maximal effect (EC50) and the “Antiproliferative Assay Data Inhibition (%)” value is 36%. For the same compound, in assay [1], the inhibition at 10 µg/mL is 0% and the inhibition at 30 µg/mL stood at 0%.
Take `O=c1cc(CN2CCCCC2)oc(-c2ccc(OCc3ccccc3)cc2)c1` [Compound 13]: in the assay with fibroblasts, the “Antiproliferative Assay Data Inhibition (%)” value turned out to be 20%. Moreover, in assay [1], the inhibition at 10 µg/mL came out at 0% and the inhibition at 30 µg/mL is 0%.
`O=c1cc(CN2CCOCC2)oc(-c2ccc(O)cc2)c1` [Compound 14, 2-(4-hydroxyphenyl)-6-(4-morpholinylmethyl)-4H-pyran-4-one]: in the assay with fibroblasts, the “antiproliferation or inhibition activity (in words)” value was “no measurable antiproliferation or inhibition activity” and the “Antiproliferative Assay Data Inhibition (%)” value turned out to be 0%. In assay [1], the inhibition at 10 µg/mL was 0% and the inhibition at 30 µg/mL came to 0%.
For the compound `O=c1cc(-c2cccc(OCc3ccccc3)c2)oc(N2CCOCC2)c1` [Compound 15, 2-(4-morpholinyl)-6-(3-(phenylmethoxy)phenyl)-4H-pyran-4-one], in the assay on fibroblasts, the midpoint of the response, the EC50, lay at 9.1 µM and the “Antiproliferative Assay Data Inhibition (%)” value is on record as 96%. Also, in assay [1], the inhibition at 10 µg/mL came to 0% and the inhibition at 30 µg/mL is 0%.
On to `O=c1cc(-c2cccc(O)c2)oc(N2CCOCC2)c1` [Compound 16, 2-(3-hydroxyphenyl)-6-(4-morpholinyl)-4H-pyran-4-one], for which, in the assay with fibroblasts, the EC50 was determined as 28.5 µM and the “Antiproliferative Assay Data Inhibition (%)” value came to 73%. In addition, in assay [1], the inhibition at 10 µg/mL came out at 5% and the inhibition at 30 µg/mL is 44%.
In the case of `O=c1cc(-c2ccc(CO)cc2)oc(N2CCOCC2)c1` [Compound 17, 2-(4-(hydroxymethyl)phenyl)-6-(4-morpholinyl)-4H-pyran-4-one], the “Antiproliferative Assay Data Inhibition (%)” value in the assay on fibroblasts is on record as 20%. For the same compound, in assay [1], the inhibition at 10 µg/mL was found to be 0% and the inhibition at 30 µg/mL amounted to 0%.
For `O=c1cc(-c2ccc(CN3CCCCC3)cc2)oc(N2CCOCC2)c1` [Compound 18, 2-(4-morpholinyl)-6-(4-(1-piperidinylmethyl)phenyl)-4H-pyran-4-one], in the assay with fibroblasts, the “Antiproliferative Assay Data Inhibition (%)” value worked out at 8%. Further, in assay [1], the inhibition at 10 µg/mL worked out at 10% and the inhibition at 30 µg/mL came out at 18%.
The corresponding values for `O=c1cc(-c2ccc(CN3CCCC3)cc2)oc(N2CCOCC2)c1` [Compound 19, 2-(4-morpholinyl)-6-(4-(1-pyrrolidinylmethyl)phenyl)-4H-pyran-4-one] are 12%, 5% and 10%.
The matching figures for `CN1CCN(Cc2ccc(-c3cc(=O)cc(N4CCOCC4)o3)cc2)CC1` [Compound 20, 2-(4-((4-methyl-1-piperazinyl)methyl)phenyl)-6-(4-morpholinyl)-4H-pyran-4-one]: 9%, 0% and 20%.
The corresponding values for `O=c1cc(-c2ccc(CN3CCCCC3CO)cc2)oc(N2CCOCC2)c1` (stereo not shown) [Compound 21, 2-(4-((2-(hydroxymethyl)-1-piperidinyl)methyl)phenyl)-6-(4-morpholinyl)-4H-pyran-4-one] are 13%, 10% and 10%.
For `O=c1cc(-c2ccc(F)cc2)oc(N2CCOCC2)c1` [Compound 22, 2-(4-Fluorophenyl)-6-(4-morpholinyl)-4H-pyran-4-one], in the assay with fibroblasts, the EC50 is more than 20 µM and the “Antiproliferative Assay Data Inhibition (%)” value was 25%. Moreover, in assay [1], the inhibition at 10 µg/mL is 42% and the inhibition at 30 µg/mL was 61%.
`O=c1cc(-c2ccc(N3CCCC3)cc2)oc(N2CCOCC2)c1` [Compound 23, 2-(4-Morpholinyl)-6-4-(1-pyrrolidinyl)phenyl-4H-pyran-4-one] came in with an EC50 in the assay with fibroblasts of 0.25 µM. In addition, in assay [1], the inhibition at 10 µg/mL worked out at 20% and the inhibition at 30 µg/mL was 50%.
The matching figures for `O=c1cc(-c2ccc(N3CCCCC3)cc2)oc(N2CCOCC2)c1` [Compound 24, 2-(4-Morpholinyl)-6-4-(1-piperidinyl)phenyl-4H-pyran-4-one]: 0.48 µM, 10% and 50%.
The matching figures for `Nc1ccc(-c2cc(=O)cc(N3CCOCC3)o2)cc1` [Compound 25, 2-(4-Aminophenyl)-6-(4-morpholinyl)-4H-pyran-4-one]: 18.7 µM, 45% and 55%.

The values above are taken from patent publication EP0489877B1, “ANTIATHEROSCLEROTIC AND ANTITHROMBOTIC 2-AMINO-6-PHENYL-4H-PYRAN-4-ONES” (THE UPJOHN COMPANY, priority 1990, dated 1992).
